Assay results from ChEMBL document CHEMBL1201862, “PubChem BioAssay data set” (2004).
Calls of active or inactive are those of the source.

Legend:
Type in all cases: functional
Genome polyprotein = Genome polyprotein (dengue virus type 2, UniProt P29990); experiment: Dengue-2 NS5 methyltransferase inhibitors, primary screen, biochemical, confirmation dose response (AID 588689)
Vero = Vero cell cytotoxicity, cytotoxicity control for flavivirus capping enzyme inhibitors (AID 588742); conditions: Chlorocebus sabaeus
[1] = target: T1, Replicative DNA helicase DnaB (Mycobacterium tuberculosis, UniProt P9WMR3); experiment: DnaB intein splicing inhibitors, dose response, biochemical, cell-free fluorescence (AID 449749)
T1 sequence (P9WMR3 whole entry): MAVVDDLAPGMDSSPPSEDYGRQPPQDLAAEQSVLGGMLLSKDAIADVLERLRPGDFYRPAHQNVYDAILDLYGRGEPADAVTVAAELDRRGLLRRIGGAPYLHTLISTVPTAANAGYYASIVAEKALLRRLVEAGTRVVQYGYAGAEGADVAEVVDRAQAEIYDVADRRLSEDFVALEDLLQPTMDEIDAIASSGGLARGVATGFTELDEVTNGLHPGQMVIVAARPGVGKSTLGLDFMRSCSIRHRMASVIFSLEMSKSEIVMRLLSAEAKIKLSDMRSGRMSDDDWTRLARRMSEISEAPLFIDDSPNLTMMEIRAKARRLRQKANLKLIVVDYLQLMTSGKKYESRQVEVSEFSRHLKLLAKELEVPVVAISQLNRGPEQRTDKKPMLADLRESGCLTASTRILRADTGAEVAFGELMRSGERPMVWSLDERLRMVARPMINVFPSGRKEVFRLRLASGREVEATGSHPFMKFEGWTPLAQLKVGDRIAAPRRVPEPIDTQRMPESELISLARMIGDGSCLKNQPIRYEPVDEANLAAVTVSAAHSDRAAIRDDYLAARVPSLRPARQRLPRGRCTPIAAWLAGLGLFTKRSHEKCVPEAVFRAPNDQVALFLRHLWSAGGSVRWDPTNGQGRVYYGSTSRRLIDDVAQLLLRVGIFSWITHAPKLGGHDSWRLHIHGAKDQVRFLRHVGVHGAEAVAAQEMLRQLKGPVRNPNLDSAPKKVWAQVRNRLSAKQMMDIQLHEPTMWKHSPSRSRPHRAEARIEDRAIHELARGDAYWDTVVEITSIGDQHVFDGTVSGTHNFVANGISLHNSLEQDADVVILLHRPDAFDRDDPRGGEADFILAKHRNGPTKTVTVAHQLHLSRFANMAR

Protein RecA = target: T2, Protein RecA (Mycobacterium tuberculosis, UniProt P9WHJ3); experiment: Fluorescence Cell-Free Homogeneous Dose Retest to Identify Inhibitors of RecA-Intein Splicing Activity. [Related pubchem assays (depositor defined):AID2097, AID2223, AID489010, AID492950]
T2 sequence (P9WHJ3 whole entry): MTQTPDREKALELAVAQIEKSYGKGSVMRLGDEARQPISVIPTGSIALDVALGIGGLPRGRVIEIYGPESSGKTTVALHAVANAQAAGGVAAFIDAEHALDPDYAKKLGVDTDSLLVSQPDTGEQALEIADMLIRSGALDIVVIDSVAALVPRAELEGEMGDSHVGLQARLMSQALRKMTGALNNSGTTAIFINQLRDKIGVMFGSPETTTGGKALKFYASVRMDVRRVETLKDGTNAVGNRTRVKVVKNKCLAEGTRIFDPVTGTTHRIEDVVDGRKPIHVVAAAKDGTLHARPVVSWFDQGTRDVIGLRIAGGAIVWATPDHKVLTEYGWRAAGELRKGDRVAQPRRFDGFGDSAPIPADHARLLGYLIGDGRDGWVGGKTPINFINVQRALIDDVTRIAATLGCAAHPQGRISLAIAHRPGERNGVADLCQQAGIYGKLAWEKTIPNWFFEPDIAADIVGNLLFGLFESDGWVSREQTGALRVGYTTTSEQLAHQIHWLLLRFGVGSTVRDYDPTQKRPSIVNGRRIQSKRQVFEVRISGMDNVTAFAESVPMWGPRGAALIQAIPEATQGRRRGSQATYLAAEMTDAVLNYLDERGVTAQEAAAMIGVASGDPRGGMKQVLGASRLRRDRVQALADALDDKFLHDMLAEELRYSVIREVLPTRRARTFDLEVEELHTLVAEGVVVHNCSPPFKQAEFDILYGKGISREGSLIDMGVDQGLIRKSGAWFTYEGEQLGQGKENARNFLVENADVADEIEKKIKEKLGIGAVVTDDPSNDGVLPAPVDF

Genome polyprotein, sequence (P29990 2492-3391 limits assumed): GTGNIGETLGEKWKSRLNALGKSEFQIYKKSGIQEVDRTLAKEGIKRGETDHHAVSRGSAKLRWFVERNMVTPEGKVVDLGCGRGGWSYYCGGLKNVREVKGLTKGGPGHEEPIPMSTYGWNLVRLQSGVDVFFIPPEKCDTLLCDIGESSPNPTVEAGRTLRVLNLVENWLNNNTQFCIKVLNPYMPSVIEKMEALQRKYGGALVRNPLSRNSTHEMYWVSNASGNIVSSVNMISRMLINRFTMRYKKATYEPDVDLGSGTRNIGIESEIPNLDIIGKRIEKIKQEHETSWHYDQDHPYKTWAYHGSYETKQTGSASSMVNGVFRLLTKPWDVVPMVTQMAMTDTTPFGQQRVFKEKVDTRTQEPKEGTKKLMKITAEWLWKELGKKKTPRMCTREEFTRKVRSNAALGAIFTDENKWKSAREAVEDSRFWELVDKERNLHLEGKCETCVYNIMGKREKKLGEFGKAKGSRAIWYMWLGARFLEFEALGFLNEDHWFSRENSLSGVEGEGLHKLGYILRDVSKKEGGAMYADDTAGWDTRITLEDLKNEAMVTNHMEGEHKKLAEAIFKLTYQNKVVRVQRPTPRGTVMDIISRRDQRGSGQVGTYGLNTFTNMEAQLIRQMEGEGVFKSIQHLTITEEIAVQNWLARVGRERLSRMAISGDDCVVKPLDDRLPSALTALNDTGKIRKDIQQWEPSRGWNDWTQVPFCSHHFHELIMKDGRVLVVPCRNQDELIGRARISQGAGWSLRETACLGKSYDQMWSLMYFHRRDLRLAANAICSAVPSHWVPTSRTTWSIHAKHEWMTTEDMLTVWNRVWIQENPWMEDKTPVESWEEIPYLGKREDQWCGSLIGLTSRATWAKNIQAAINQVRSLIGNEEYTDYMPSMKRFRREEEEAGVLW

Cc1nn(Cc2ccccc2)c2c1C(c1cccc(Cl)c1)C(C#N)=C(N)O2 (centres undefined)
active: IC50 (Genome polyprotein) > 100 µM | CC50 (Vero) > 40 µM | AC50 [1] 5.7 µM | EC50 (Protein RecA) 3.26 µM
